From patent US20220279787A1, “a-Substituted Phenyl Structure-Containing Compound, Preparation Method Thereof, and Disinfectant” (Henan Ruibo Pharmaceutical Technology Co. Ltd., priority 2019, published 2022)

Columns and labels:
Format in all cases: cell-based
[1] = test system: Pseudomonas aeruginosa ATCC 27853; experiment: Suspension quantitative sterilization experiment, Pseudomonas aeruginosa ATCC 27853; settings: for Activity (killing logarithmic value): suspension method, 6.25 g/L, action time 30 min
Method: (§1) (5) Operation Method of Suspension Quantitative Experiment:
(§2) a. The freeze-dried strain tube was provided, opened up under an aseptic condition, and an appropriate amount of nutrient broth was added thereto with a capillary pipette. The strain was melted and dispersed by gently blowing and sucking several times. A test tube containing 5.0 mL-10.0 mL of nutrient broth medium was provided, and a small amount of bacterial suspension was dropped thereto, and incubated at 37° C. for 18 h-24 h. The bacterial suspension of the first generation culture was taken by using an inoculation loop, and streaked and inoculated onto a nutrient agar medium plate, and incubated at 37° C. for 18 h-24 h. The typical colonies from the second generation culture was picked out, inoculated onto a nutrient agar slant, and incubated at 37° C. for 18 h-24 h, obtaining the third generation culture.
(§3) b. The monoclonal strains of the third generation culture of Escherichia coli ATCC 25922, Staphylococcus aureus ATCC 29213, and Pseudomonas aeruginosa ATCC 27853 were picked out respectively and placed in 3 mL of NMB. The strains were shaken in a constant temperature culture shaker for 3 h with a rotation speed of 220 rpm, obtaining a bacterial suspension with a concentration of (1-5)×10^8 CFU/mL.
(§4) c. 0.5 mL of bacterial suspension was added to a sterile test tube, and 0.5 mL of an organic interfering substance (0.03 mol/L PBS buffer) was then added thereto. They were mixed to be uniform, and placed in a water bath at 20° C.±1° C. for 5 min. 4.0 mL of the sample to be tested prepared in step (1) was drawn with a sterile pipette and injected into the mixed solution, mixed quickly, and the time was recorded immediately.
(§5) d. After the experimental bacteria interacted with the sample to be tested for the predetermined time of 1 min, 5 min, 15 min and 30 min. 0.5 mL of the mixture of the experimental bacteria and the sample to be tested was drawn respectively and added to 4.5 mL of a neutralizer, and mixed to be uniform.
(§6) e. After 10 min of neutralization, 1.0 mL of the sample solution was drawn, and the number of viable bacteria was determined by viable count method. After the viable count method, sample solution of each pipette was inoculated onto 2 plates. When the number of colonies growing on the plate was large, 10-fold dilution was performed, and then the viable bacteria was cultured and counted.
(§7) f. At the same time, PBS buffer was used to replace the sample to be tested, and a parallel test was performed as a positive control.
(§8) g. All test samples were placed in a 37° C. incubator overnight, and the results were observed.
(§9) h. The experiment was repeated for 3 times, the concentration of viable bacteria (CFU/mL) of each group was calculated, and converted to logarithmic value (N), and then the killing logarithmic value was calculated according to the following equation:
(§10) Killing logarithmic value (KL)=the logarithmic value of the average viable bacteria concentration of the control group (No)−the logarithmic value of the viable bacteria concentration of the test group (Nx).
(§11) When calculating the killing logarithmic value, two digits after the decimal point was kept, and digital round-off was allowed.

[2] = test system: Staphylococcus aureus ATCC 29213; experiment: Suspension quantitative sterilization experiment, Staphylococcus aureus ATCC 29213; settings: for Activity (killing logarithmic value): suspension method, 6.25 g/L, action time 30 min
Method: as §1, §2, §3, §4, §5, §6, §7, §8, §9, §10, §11

[3] = test system: Escherichia coli ATCC 25922; experiment: Suspension quantitative sterilization experiment, Escherichia coli ATCC 25922; settings: for Activity (killing logarithmic value): suspension method, 6.25 g/L, action time 30 min
Method: as §1, §2, §3, §4, §5, §6, §7, §8, §9, §10, §11

[4] = test system: Bacillus subtilis var. niger spores ATCC 9372; experiment: Suspension quantitative experiment, Bacillus subtilis var. niger spores; settings: Bacillus subtilis, ATCC9372, 0.5 h, read-out: Activity (killing logarithmic value)
Method: (4) Operation Method of Suspension Quantitative Experiment:
a. The Bacillus subtilis var. niger spores ATCC 9372 freeze-dried strain tube was provided, opened up under an aseptic condition, and an appropriate amount of nutrient broth was added thereto with a capillary pipette. The strain was melted and dispersed by gently blowing and sucking several times. A test tube containing 5.0 mL-10.0 mL of nutrient broth medium was provided, and a small amount of bacterial suspension was dropped thereto, and incubated at 37° C. for 18 h-24 h. The bacterial suspension of the first generation culture was taken by using an inoculation loop.
b. The monoclonal strains of the first generation culture were picked out and placed in 3 mL of NMB. The strains were shaken in a constant temperature culture shaker for 3 h with a rotation speed of 220 rpm, obtaining a bacterial suspension with a concentration of (1-5)×10^8 CFU/mL.
as §4
d. After the experimental bacteria interacted with the sample to be tested for the predetermined time. 0.5 mL of the mixture of the experimental bacteria and a disinfectant was drawn respectively and added to 4.5 mL of a neutralizer, and mixed to be uniform.
as §6
h. At the same time, PBS buffer was used to replace the sample to be tested, and a parallel test was performed as a positive control.
f. All test samples were placed in a 37° C. incubator overnight, and the results were observed.
g. The experiment was repeated for 3 times, the concentration of viable bacteria (CFU/mL) of each group was calculated, and converted to logarithmic value (N), and then the killing logarithmic value was calculated according to the following equation:
as §10, §11

How did the Killing logarithmic value ([1]; 0.15 g/L, 1 min) turn out when `Cc1cc(O)cc(C)c1Cl` [4-Chloro-3,5-dimethylphenol solution, 4-chloro-3,5-dimethylphenol] was run?
Its Killing logarithmic value is 0.78.

And the Killing logarithmic value ([1]; 0.15 g/L, 5 min)?
The Killing logarithmic value was 0.87.

What about the Killing logarithmic value ([1]; 0.15 g/L, 15 min) of the same compound?
The Killing logarithmic value was 0.94.

And the Killing logarithmic value ([1]; 0.15 g/L, 30 min)?
The Killing logarithmic value was 0.96.

And the Killing logarithmic value ([1]; 0.31 g/L, 1 min)?
The Killing logarithmic value was 4.77.

What about the Killing logarithmic value ([1]; 0.31 g/L, 5 min) of the same compound?
Its Killing logarithmic value is 4.87.

And the Killing logarithmic value ([1]; 0.31 g/L, 15 min)?
Its Killing logarithmic value is 4.91.

What about the Killing logarithmic value ([1]; 0.31 g/L, 30 min) of the same compound?
Its Killing logarithmic value is 4.95.

And the Killing logarithmic value ([2]; 0.15 g/L, 1 min)?
The Killing logarithmic value was 2.07.

What about the Killing logarithmic value ([2]; 0.15 g/L, 5 min) of the same compound?
The Killing logarithmic value was 2.74.

And the Killing logarithmic value ([2]; 0.15 g/L, 15 min)?
Its Killing logarithmic value is 2.90.

And the Killing logarithmic value ([2]; 0.15 g/L, 30 min)?
Its Killing logarithmic value is 3.16.

What about the Killing logarithmic value ([2]; 0.31 g/L, 1 min) of the same compound?
Its Killing logarithmic value is 3.12.

What about the Killing logarithmic value ([2]; 0.31 g/L, 5 min) of the same compound?
The Killing logarithmic value was 3.30.

And the Killing logarithmic value ([2]; 0.31 g/L, 15 min)?
Its Killing logarithmic value is 3.45.

And the Killing logarithmic value ([2]; 0.31 g/L, 30 min)?
The Killing logarithmic value was 4.13.

And the Killing logarithmic value ([3]; 0.15 g/L, 1 min)?
Its Killing logarithmic value is 1.69.

What about the Killing logarithmic value ([3]; 0.15 g/L, 5 min) of the same compound?
Its Killing logarithmic value is 1.78.

What about the Killing logarithmic value ([3]; 0.15 g/L, 15 min) of the same compound?
The Killing logarithmic value was 2.32.

And the Killing logarithmic value ([3]; 0.15 g/L, 30 min)?
The Killing logarithmic value was 2.99.

And the Killing logarithmic value ([3]; 0.31 g/L, 1 min)?
The Killing logarithmic value was 6.17.

And the Killing logarithmic value ([3]; 0.31 g/L, 5 min)?
The Killing logarithmic value was 6.17.

And the Killing logarithmic value ([3]; 0.31 g/L, 15 min)?
Its Killing logarithmic value is 6.17.

What about the Killing logarithmic value ([3]; 0.31 g/L, 30 min) of the same compound?
The Killing logarithmic value was 6.17.

`CNC(=O)C(c1ccc(O)c(O)c1)C1CCCCC1` (stereo not drawn) [Example 1, 2-cyclohexyl-2-(3,4-dihydroxyphenyl)-N-methylacetamide] was tested. Which “Activity (killing logarithmic value)” value [1] did it give?
The value was 1.31.

And the “Activity (killing logarithmic value)” value [2]?
The value was 1.16.

And the log reduction at 15000 µg/mL [4]?
The log reduction at 15000 µg/mL was 1.35.

What about the “Activity (killing logarithmic value)” value [3] of the same compound?
The value was 1.23.

Which “Activity (killing logarithmic value)” value [1] does the source give for `CC(C)NC(=O)C(c1ccccc1)c1ccc(O)cc1` (stereo not drawn) [Example 2, 2-(4-hydroxyphenyl)-N-isopropyl-2-phenylacetamide] here?
Its value is 0.99.

And the “Activity (killing logarithmic value)” value [2]?
The value was 0.89.

And the log reduction at 15000 µg/mL [4]?
Its log reduction at 15000 µg/mL is 0.98.

And the “Activity (killing logarithmic value)” value [3]?
The value was 0.97.

With `CNC(=O)C(c1ccccc1)c1ccc(F)c(F)c1` (stereo not drawn) [Example 3, 2-(3,4-difluorophenyl)-N-methyl-2-phenylacetamide] as the compound, how does the “Activity (killing logarithmic value)” value [1] read?
The value was 1.56.

And the “Activity (killing logarithmic value)” value [2]?
The value was 1.54.

What about the log reduction at 15000 µg/mL [4] of the same compound?
The log reduction at 15000 µg/mL was 2.07.

What about the “Activity (killing logarithmic value)” value [3] of the same compound?
Its value is 1.14.
